Numbered stars: 1 amine (or outer) side, 2 acyl side, 3 side chain; on linkers, the order of the positions; unused ones are H or OH. Bridge positions count the residues as written; N and C are the ends. Square brackets hold non-standard residues; d marks the D form. Peptide text beside a SMILES is read from it. ξ: configuration not given here. X1 = O=C(C(CO)NN[*:1])[*:2]; ξY = NC(Cc1ccc(O)cc1)C(=O)O; ξQ = NC(=O)CCC(N)C(=O)O; ξN = NC(=O)CC(N)C(=O)O
Columns and labels:
[1] = Binding affinity to human PD-1
[2] = Induction of mouse splenocytes proliferation at 100 nM; type: functional, Splenocyte
[3] = target: T1, Programmed cell death protein 1/Programmed cell death 1 ligand 1 (Homo sapiens, UniProt Q15116+Q9NZQ7); test: Inhibition of recombinant human PD-1/PD-L1 interaction relative to control; type: protein-complex assay; conditions: concentration not given here
[4] = target: T1, Programmed cell death protein 1/Programmed cell death 1 ligand 1; test: Inhibition of human PD-1/PD-L1 interaction; type: protein-complex assay
[5] = target: T1, Programmed cell death protein 1/Programmed cell death 1 ligand 1; test: Inhibition of PD-1/PD-L1 interaction in human MDA-MB-231 cells assessed as increase in mouse splenocytes proliferation; type: cell-based; parameters: concentration or dose not given beside the values
[6] = target: Programmed cell death 1 ligand 1 (Mus musculus, UniProt Q9EP73); test: Inhibition of PD-L1 in mouse splenocytes assessed as increase in INFgamma release; type: cell-based, Splenocyte
CT26 = test: Antitumor activity against mouse CT26 cells implanted in mouse at 3 mg/kg administered for 25 days; type: functional; conditions: time 25 day
[7] = target: Programmed cell death 1 ligand 1 (Homo sapiens, UniProt Q9NZQ7); test: Inhibition of PD-L1 in human PBMCs assessed as increase in INFgamma production; type: cell-based, PBMC
[8] = target: T2, Programmed cell death 1 ligand 2 (Homo sapiens, UniProt Q9BQ51); test: Inhibition of PD-L2 in human PBMCs assessed as increase in INFgamma production; type: cell-based, PBMC
T2 sequence (Q9BQ51 whole entry): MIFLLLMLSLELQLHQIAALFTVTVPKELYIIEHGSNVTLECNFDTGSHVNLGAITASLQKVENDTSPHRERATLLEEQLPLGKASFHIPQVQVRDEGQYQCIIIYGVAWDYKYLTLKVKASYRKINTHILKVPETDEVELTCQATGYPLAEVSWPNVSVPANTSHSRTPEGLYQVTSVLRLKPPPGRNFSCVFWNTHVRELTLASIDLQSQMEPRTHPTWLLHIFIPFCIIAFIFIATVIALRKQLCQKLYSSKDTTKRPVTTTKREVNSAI

[9] = Inhibition of VISTA/PD-1 interaction in human PBMCs assessed as increase in INFgamma production; type: cell-based; conditions: PBMC
[10] = target: T3, Programmed cell death 1 ligand 2 (Mus musculus, UniProt Q9WUL5); test: Inhibition of PD-L2 in mouse splenocytes assessed as increase in INFgamma production; type: cell-based, Splenocyte
T3 sequence (Q9WUL5 whole entry): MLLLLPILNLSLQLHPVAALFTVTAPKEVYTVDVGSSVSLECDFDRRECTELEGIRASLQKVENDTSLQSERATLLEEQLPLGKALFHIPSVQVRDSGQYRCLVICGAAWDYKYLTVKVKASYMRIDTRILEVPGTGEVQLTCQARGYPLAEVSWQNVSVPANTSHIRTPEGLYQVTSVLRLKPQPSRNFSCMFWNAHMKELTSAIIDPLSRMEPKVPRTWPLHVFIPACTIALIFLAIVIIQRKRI

Programmed cell death 1 ligand 1 (Mus musculus, UniProt Q9EP73), sequence (Q9EP73 whole entry): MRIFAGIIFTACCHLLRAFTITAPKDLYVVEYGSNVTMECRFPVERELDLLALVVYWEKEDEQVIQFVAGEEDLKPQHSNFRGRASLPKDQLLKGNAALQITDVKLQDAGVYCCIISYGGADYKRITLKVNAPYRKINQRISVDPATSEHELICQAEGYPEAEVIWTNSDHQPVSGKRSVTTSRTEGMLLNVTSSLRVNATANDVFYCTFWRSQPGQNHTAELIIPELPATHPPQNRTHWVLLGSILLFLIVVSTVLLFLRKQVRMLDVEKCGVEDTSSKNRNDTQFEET
T1 sequence (Q15116 whole entry): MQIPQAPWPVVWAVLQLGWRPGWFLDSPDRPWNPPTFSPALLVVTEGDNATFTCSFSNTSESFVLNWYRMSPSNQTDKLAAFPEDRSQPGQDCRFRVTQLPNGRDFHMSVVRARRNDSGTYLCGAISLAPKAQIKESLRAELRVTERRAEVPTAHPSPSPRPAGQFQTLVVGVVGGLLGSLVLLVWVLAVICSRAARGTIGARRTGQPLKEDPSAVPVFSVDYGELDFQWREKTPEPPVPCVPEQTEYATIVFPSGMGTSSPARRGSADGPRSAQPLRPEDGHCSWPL
T1 sequence (Q9NZQ7 whole entry): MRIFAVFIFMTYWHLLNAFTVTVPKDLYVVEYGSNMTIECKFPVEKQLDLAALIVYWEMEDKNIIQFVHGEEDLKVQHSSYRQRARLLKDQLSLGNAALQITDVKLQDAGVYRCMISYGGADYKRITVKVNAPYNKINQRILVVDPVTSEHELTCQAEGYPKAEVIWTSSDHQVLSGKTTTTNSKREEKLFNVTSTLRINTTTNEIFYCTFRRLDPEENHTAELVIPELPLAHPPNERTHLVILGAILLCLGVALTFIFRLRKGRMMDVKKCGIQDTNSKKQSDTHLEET
Programmed cell death 1 ligand 1 (Homo sapiens, UniProt Q9NZQ7), sequence (Q9NZQ7 whole entry): as above

Compound: CC[C@H](C)[C@H](NC(=O)[C@H](CC(N)=O)NC(=O)CNC(=O)[C@H](Cc1cnc[nH]1)NC(=O)[C@H](CCCNC(=N)N)NC(=O)C(Cc1ccc(O)cc1)NC(=O)[C@H](CC(=O)O)NC(=O)[C@H](CCCCN)NC(=O)[C@H](CCC(=O)O)NC(=O)[C@@H](N)[C@@H](C)O)C(=O)N[C@@H](CCCNC(=N)N)C(=O)N[C@@H](CCSC)C(=O)N[C@@H](CCCCN)C(=O)N[C@@H](CC(C)C)C(=O)N[C@@H](C)C(=O)N[C@@H](Cc1ccc(O)cc1)C(=O)N[C@@H](CC(=O)O)C(=O)N[C@@H](CC(C)C)C(=O)O (stereo partly specified) (H-TEKD[ξY]RHGNIRMKLAYDL-OH)
- Kd [1]: 3130 nM

Compound: CCN(Cc1ccccc1)C(=O)N[C@@H](CC(N)=O)c1nc([C@@H](N)CO)no1
- Activity [2]: 92%

Compound: H-LDYVNRRKMYQ-OH
- Kd [1]: 3320 nM

Compound: CCCCN(CCCC)CCOc1cccc(OC(=O)N(C)C)c1
- inhibition [3]: 41.9%

Compound: CNCCOc1cccc(OC(=O)N(C)C)c1
- inhibition [3]: 18.5%

Compound: C[C@@H](O)[C@H](N)c1noc([C@H](Cc2ccc(O)cc2)NC(=O)N2CCC[C@H]2C(=O)O)n1
- Activity [2]: 99%

Compound: H-FNWDYSLEELREKAKYK-OH
- Kd [1]: 3140 nM

Compound: CC[C@H](C)[C@@H]1NC(=O)[C@H](CC(C)C)NC(=O)[C@H](Cc2ccccc2)NC(=O)CSC[C@@H](C(=O)NCC(N)=O)NC(=O)[C@H](CCCNC(=N)N)NC(=O)[C@H](Cc2ccccc2)NC(=O)[C@H](C(C)C)NC(=O)[C@H](CCCNC(=N)N)NC(=O)[C@H](CC(=O)O)NC(=O)[C@H](CCCNC(=N)N)NC(=O)[C@H]([C@@H](C)CC)NC(=O)[C@H](C(C)C)NC1=O ({CH2CO}-FLIVIRDRVFRCG-NH2; thioether N-12)
- EC50 [4]: 0.72 nM

Compound: Cc1c(Nc2nccc3cc(CN4CC[C@@H](O)C4)cnc23)cccc1-c1cccc(-c2nc3cc(CN[C@H]4CC[C@@H](C(=O)O)C4)cc(C#N)c3o2)c1C
- IC50 [4]: < 10 nM

Compound: C[C@@H](O)[C@@H]1NC(=O)[C@H](CC(N)=O)NC(=O)C(CO)NNC(=O)C(CCC(N)=O)NC(=O)[C@H](Cc2ccccc2)NC(=O)[C@H](CO)NC(=O)[C@H](CCC(=O)O)NC(=O)[C@H](CO)NC1=O (stereo partly specified) (cyclo(ESF[ξQ][X1]NTS))
- Activity [5]: 76%

Compound: Cc1c(-c2ccccc2)cccc1-c1nc2cc(CNCCO)ccc2o1
- IC50 [4]: < 10 nM

Compound: H-FNWDYSWKSERLKEAYDL-OH
- Kd [1]: 339000 nM

Compound: C[C@H](O)[C@H](NC(=O)N[C@@H](Cc1ccccc1)c1nc([C@@H](N)CO)no1)C(=O)O
- Activity [2]: 92%

Compound: CC[C@H](C)[C@H](NC1CCC(=O)NCCCCC(C(=O)N[C@@H](CO)C(=O)NC(CCC(N)=O)C(=O)O)NC(=O)[C@H](CO)NC(=O)[C@H](CCSC)NC1=O)C(=O)O (stereo partly specified)
- Activity [5]: 76%

Compound: C[C@H](O)[C@@H](N)C(=O)NNC(=O)[C@@H](CC(N)=O)NC(=O)N[C@H](CO)C(=O)O
- EC50 [6]: 40 nM

Compound: C[C@@H](O)[C@@H]1NC(=O)C(N[C@@H](CO)C(=O)O)CCCCNC(=O)CCC(C(=O)N[C@@H](CO)C(=O)N[C@@H](Cc2ccccc2)C(N)=O)NC(=O)[C@H](CO)NC1=O (stereo partly specified)
- Activity [5]: 84%

Compound: H-GIDYEERWK-OH
- Kd [1]: 28300 nM

Compound: Cc1c(-c2nc3cc(CN4CC[C@@](C)(C(=O)O)C4)cc(C#N)c3o2)cccc1-c1cccc(-c2nc3c(s2)CN(C(=O)CN(C)C(C)C)C3)c1C
- IC50 [4]: < 10 nM

Compound: H-LDYGDKREGQMAE-OH
- Kd [1]: 21600 nM

Compound: C[C@@H](O)[C@H](N)C(=O)NNC(=O)[C@H](CC(N)=O)NC(=O)N[C@@H](CO)C(=O)O
- EC50 [6]: 27 nM

Compound: Cc1c(Nc2nccc3cc(CN[C@H](C)CO)cnc23)cccc1-c1cccc(-c2nc3cc(CN4CCC(C(=O)O)CC4)cc(C#N)c3o2)c1C
- IC50 [4]: < 10 nM

Compound: C[C@@H](O)[C@@H]1NC(=O)C(N[C@@H](CO)C(=O)O)CCC(=O)NCCCCC(C(=O)N[C@@H](CO)C(=O)N[C@@H](Cc2ccccc2)C(N)=O)NC(=O)[C@H](CO)NC1=O (stereo partly specified)
- Activity [5]: 78%

Compound: CC(O)[C@H](NC(=O)N[C@@H](CCC(N)=O)c1nnc([C@@H](N)C(C)O)o1)C(=O)O (stereo partly specified)
- Activity [2]: 97%

Compound: N[C@@H](Cc1ccc(O)cc1)c1noc([C@@H]2CCCN2C(=O)N[C@@H](Cc2ccc(O)cc2)C(=O)O)n1
- Activity [2]: 91%

Compound: N[C@@H](Cc1c[nH]c2ccccc12)C(=O)N[C@@H](CC(=O)O)C(=O)N[C@@H](Cc1ccc(O)cc1)C(=O)N[C@@H](CC(=O)O)C(=O)O (H-WDYD-OH)
- Kd [1]: 22400 nM

Compound: Cc1nnc(NS(=O)(=O)c2ccc(N)cc2)s1
- inhibition [3]: 29.3%

Compound: Cc1c(-c2ccc3c(c2)OCCO3)cccc1-c1nc2cc(CNCCO)c(OCC#N)cc2o1
- IC50 [4]: < 10 nM

Compound: C[C@H](O)[C@H](NC(=O)N[C@@H](CC(N)=O)C(=O)NNC(=O)[C@@H](N)CO)C(=O)O
- Activity (CT26): 46%
- EC50 [6]: 30 nM

Compound: C[C@@H](O)[C@H](NC(=O)[C@H](CO)NC(CCC(=O)NCCCCNC(=O)C(Cc1ccccc1)NC(=O)C(N)CO)C(N)=O)C(=O)N[C@@H](CC(N)=O)C(=O)N[C@@H](CO)C(=O)O (stereo partly specified)
- Activity [5]: 87%

Compound: CC[C@H](C)[C@H](NC1CCC(=O)NCCCCC(C(=O)N[C@@H](CO)C(=O)N[C@@H](Cc2ccccc2)C(N)=O)NC(=O)[C@H](CO)NC(=O)[C@H]([C@@H](C)O)NC1=O)C(=O)O (stereo partly specified)
- Activity [5]: 76%

Compound: Cc1c(-c2nc3c(o2)CN(C(=O)CN2CCC(O)CC2)C3)cccc1-c1cccc(-c2nc3cc(CN4CC[C@@](C)(C(=O)O)C4)cc(C#N)c3o2)c1C
- IC50 [4]: < 10 nM

Compound: COc1cc(NS(=O)(=O)c2ccc(N)cc2)ncn1
- inhibition [3]: 10.2%

Compound: CC(C)C[C@H](NC(=O)[C@H](CCC(N)=O)NC(=O)[C@H](C)NC(=O)[C@H](CCCNC(=N)N)NC(=O)[C@H](CCC(N)=O)NC(=O)[C@H](CO)NC(=O)[C@H](CC(N)=O)NC(=O)[C@H](Cc1ccc(O)cc1)NC(=O)[C@H](CC(=O)O)NC(=O)[C@H](Cc1c[nH]c2ccccc12)NC(=O)C(CC(N)=O)NC(=O)CN)C(=O)N[C@@H](Cc1ccc(O)cc1)C(=O)N[C@@H](CC(N)=O)C(=O)N[C@@H](CCC(N)=O)C(=O)O (stereo partly specified) (H-G[ξN]WDYNSQRAQLYNQ-OH)
- Kd [1]: 1380 nM

Compound: Cc1c(-c2ccccc2)cccc1-c1nc2cc(CNCCO)c(OCCN3CCOCC3)cc2o1
- IC50 [4]: < 10 nM

Compound: Cc1c(-c2ccc3c(c2)OCCO3)cccc1-c1nc2cc(CNCCO)cc(C)c2o1
- IC50 [4]: < 10 nM

Compound: CC(O)[C@H](NC(=O)N[C@@H](CC(N)=O)c1nnc([C@@H](N)CO)s1)C(=O)O (stereo partly specified)
- EC50 [6]: 33.8 nM
- EC50 [7]: 56.4 nM
- EC50 [8]: 149 nM
- EC50 [9]: 49.4 nM
- EC50 [10]: 55 nM
